Experimental data reported in paper PMC7445428, “Simplified dolutegravir dosing for children with HIV weighing 20 kg or more: pharmacokinetic and safety substudies of the multicentre, randomised ODYSSEY trial” (The Lancet. HIV, 2020).
Where two headings read alike, the source gives them in different places. Marks after values point to notes of the source that are not given here.

Columns and labels:
[1] = design: method as in earlier work; conditions: cited from earlier work
[2] = design: method as in PMID 22183173; conditions: adult healthy volunteers, cited from earlier work
[3] = design: species or system human
Protocol: The pharmacokinetic substudy for children weighing 25 kg to less than 40 kg was a within-subject, two-period, fixed-order, pharmacokinetic study with paediatric dolutegravir doses approved by the SRAs at the time of the study used in the first period and a higher (adult) dose of 50 mg as film-coated tablet in the second period. A child first completed 24-h intensive pharmacokinetic sampling after at least 1 week of receiving 25 mg film-coated tablets if they were in the 25 kg to less than 30 kg weight band or 35 mg (one 10 mg and one 25 mg film-coated tablet) if they were in the 30 to less than 40 kg weight band. The second 24-h pharmacokinetic profile was taken at least 1 week after the switch to a daily 50 mg film-coated tablet.
In a parallel pharmacokinetic substudy, children weighing 20 kg to less than 25 kg had 24-h intensive pharmacokinetic profiling on the once-daily dose of dolutegravir 25 mg film-coated tablet (part one). After review of the results, we did a subsequent substudy (part two) in children weighing 20 to less than 25 kg, investigating higher dolutegravir doses to achieve better exposures. On the basis of results of part one and to simplify dosing and future access to formulations, we studied the 50 mg adult film-coated tablet. Because we were concurrently investigating dispersible dolutegravir tablets in children weighing less than 20 kg (not reported here), we also studied a 30 mg dose given as six 5 mg dispersible tablets, which is bioequivalent to a 50 mg film-coated tablet,[16] as an option for children unable to swallow adult tablets. Dolutegravir 50 mg film-coated tablet or 30 mg dispersible tablet formulations were allocated by site. This substudy primarily enrolled children who had not participated in part one because children initially recruited in this weight band had gained weight and were no longer in the weight band.
To achieve steady-state, children attended their pharmacokinetic study visit day at least 7 days after starting on the investigated dolutegravir dose. We ascertained medication adherence during the last 3 days before the day of pharmacokinetic assessment to ensure that no doses had been missed. To construct a dolutegravir plasma concentration-time profile, blood samples of 2 mL were taken at baseline and 1, 2, 3, 4, 6, and 24 h after observed dolutegravir intake with 100 mL of water. To conform with adult comparator studies, participants fasted at least 3 h before dolutegravir intake, although an overnight fast was preferred. Dispersible tablets were dispersed in a small amount of water and immediately taken, followed by an additional intake of water up to a volume of 100 mL. We allowed no medications, other than nucleoside reverse transcriptase inhibitors, within 2 h after dolutegravir intake. Children fasted 2 h after dolutegravir intake before having a light breakfast (containing approximately 250 calories). During pharmacokinetic assessment days all food was provided at set times.
We refrigerated blood samples within 10 min and centrifuged them within 24 h of collection. Plasma was separated and stored at −80°C until shipping to the laboratory of the Department of Pharmacy, Radboudumc, Nijmegen, Netherlands for quantification with a validated liquid chromatography tandem mass spectrometry bioanalytical quantification method (lower limit of quantification of 0·01 mg/L).[18]
We included all participants consenting to inclusion in the pharmacokinetic substudies in the safety analyses. For the pharmacokinetic analyses, we considered haemolysed samples non-evaluable and excluded pharmacokinetic profiles if treatment non-adherence was likely (predefined when a predose concentration [C0] was >15 times below the concentration 24 h after observed drug intake (trough concentration [Ctrough]), if protocol violations had occurred, or if concomitant medications known to affect dolutegravir drug concentrations had been used. […]

plasma HIV-1 RNA = test system: plasma HIV-1 RNA; design: method as in PMID 22018760; conditions: adults, 96 weeks, cited from earlier work
[4] = Safety follow-up (serious, grade 3 or 4 adverse events) over 24 weeks in children of the pharmacokinetic substudies; format: in vivo, human
Protocol: Children enrolled in the pharmacokinetic substudies attended study visits following the main ODYSSEY trial protocol (visits every 12 weeks after week 4 from enrolment). Participants whose dose was increased to 30 mg dispersible tablets or the 50 mg film-coated tablet had additional safety visits at weeks 2, 4, and 12 after dose adaptation. At each visit, we did a clinical assessment, including haematology and biochemistry safety parameters. We ascertained serious adverse events (defined according to International Conference on Harmonisation Guideline for Good Clinical Practice), grade 3 and 4 clinical and laboratory events, and events resulting in modification of ART (any grade).
All children consenting to inclusion in a pharmacokinetic substudy contributed safety data from the start of each pharmacokinetic dose for 24 weeks or to last follow-up visit, whichever was earlier; no participant commenced a second pharmacokinetic dose before completing 24 weeks on the first pharmacokinetic dose with the exception of children weighing 25 kg to less than 40 kg crossing over from the doses approved by the SRAs at the time of the study the 50 mg film-coated tablet, with which follow-up could be shorter. As part of the ODYSSEY trial, an independent endpoint review committee who were masked to trial groups (third drug of ART regimen) reviewed all reported adverse events. We did descriptive analysis reporting follow-up and adverse events by dose and weight band in STATA (version 15.0). An independent data monitoring committee reviewed conduct, pharmacokinetic, and safety data from these substudies. The ODYSSEY trial is registered with ClinicalTrials.gov, NCT02259127.

[5] = 20 to <25 kg, 9 patients (50 mg) FCT
[6] = 20 to <25 kg, 10 patients (30 mg) DT
[7] = 20 to <25 kg, 17 patients (25 mg) FCT
[8] = 25 to <30 kg, 17 patients (25 mg) FCT
[9] = 25 to <30 kg, 17 patients (50 mg) FCT
[10] = 30 to <40 kg, 11 patients (35 mg) FCT
[11] = 30 to <40 kg, 11 patients (50 mg) FCT

For `C[C@@H]1CCO[C@H]2Cn3cc(C(=O)NCc4ccc(F)cc4F)c(=O)c(O)c3C(=O)N12` [dolutegravir], the “Bioequivalence of 30 mg dose as six 5 mg dispersible tablets to 50 mg film-coated tablet” value [1] is listed as “bioequivalent”, the “Increase of C24 with food compared with fasting” value (“Increase of C24 with food” for short) ([2]; high fat meal) is listed as 73% and the “Increase of C24 with food” value ([2]; low fat meal) is listed as 33%. The “Increase of C24 with food” value ([2]; moderate fat meal) was 45%, the “Children with individual Ctrough below 0·32 mg/L (in vivo EC90)” value ([3]; human, 24 h) was 12 (30%) n (%) and the “AUC0-24h / Dose geometric mean ratio (90% CI), 50 mg FCT vs 25/35 mg FCT” value ([3]; human, in vivo) was 0∙91 (0∙85-0∙97). For the same compound, the “Cmax / Dose geometric mean ratio (90% CI), 50 mg FCT vs 25/35 mg FCT” value ([3]; human, in vivo) was 0∙89 (0∙82-0∙96), the “GM Cmax higher than in adults on 50 mg twice-daily” value ([3]; human, in vivo) was 32% and the “GM Cmax higher than in adults on 50 mg twice-daily” value ([3]; human, in vivo, 50 mg) was 17%. For the same compound, the “Ctrough / Dose geometric mean ratio (90% CI), 50 mg FCT vs 25/35 mg FCT” value ([3]; human, in vivo, 24 h) was 0∙98 (0∙87-1∙10), the “Ctrough geometric mean ratio (90% CI), 50 mg FCT vs 30 mg DT” value ([3]; human, in vivo, 24 h) was 0∙99 (0∙57-1∙71) and the “Equivalence, 50 mg FCT vs 30 mg DT” value ([3]; in vivo) was “Suggested”. The “Sustained virological response rate (plasma HIV-1 RNA <50 copies per mL)” value (plasma HIV-1 RNA; 10 mg film-coated tablet once daily) was 79%, the “Sustained virological response rate (plasma HIV-1 RNA <50 copies per mL)” value (plasma HIV-1 RNA; 50 mg film-coated tablet once daily) was 88% and the “Total adverse events (grade 3 or 4 or serious adverse event)” value (from here on “Total adverse events”) ([4]; 17 patients (25 mg) FCT) was 3 (18%) n (%). For the same compound, the “Anaemia (grade 3 or 4 asymptomatic laboratory event)” value (“Anaemia” for short) [4, 5] was 0 n (%), the “Cryptococcal meningitis (grade 3 or 4 clinical adverse event)” value (from here on “Cryptococcal meningitis”) [4, 5] was 0 n (%) and the “Grade 3 or 4 asymptomatic laboratory events” value [4, 5] was 0 n (%). The “Grade 3 or 4 clinical adverse events” value [4, 5] was 0 n (%), the “Neutropenia (grade 3 or 4 asymptomatic laboratory event)” value (“Neutropenia” below) [4, 5] was 0 n (%) and the “Thrombocytopenia and raised transaminases (grade 3 or 4 asymptomatic laboratory event)” value [4, 5] was 0 n (%). For the same compound, the “Anaemia” value [4, 6] was 0 n (%), the “Cryptococcal meningitis” value [4, 6] was 0 n (%) and the “Grade 3 or 4 asymptomatic laboratory events” value [4, 6] was 0 n (%). For the same compound, the “Grade 3 or 4 clinical adverse events” value [4, 6] was 0 n (%), the “Neutropenia” value [4, 6] was 0 n (%) and the “Thrombocytopenia and raised transaminases (grade 3 or 4 asymptomatic laboratory event)” value [4, 6] was 0 n (%). The “Anaemia” value [4, 7] was 0 n (%), the “Cryptococcal meningitis” value [4, 7] was 0 n (%) and the “Grade 3 or 4 asymptomatic laboratory events” value [4, 7] was 3 (18%) n (%). For the same compound, the “Grade 3 or 4 clinical adverse events” value [4, 7] was 0 n (%), the “Anaemia” value [4, 8] was 0 n (%) and the “Cryptococcal meningitis” value [4, 8] was 0 n (%). For the same compound, the “Grade 3 or 4 asymptomatic laboratory events” value [4, 8] was 0 n (%), the “Grade 3 or 4 clinical adverse events” value [4, 8] was 0 n (%) and the “Neutropenia” value [4, 8] was 0 n (%). The “Thrombocytopenia and raised transaminases (grade 3 or 4 asymptomatic laboratory event)” value [4, 8] was 0 n (%), the “Anaemia” value [4, 9] was 0 n (%) and the “Cryptococcal meningitis” value [4, 9] was 0 n (%). For the same compound, the “Grade 3 or 4 asymptomatic laboratory events” value [4, 9] was 1 (6%) n (%), the “Grade 3 or 4 clinical adverse events” value [4, 9] was 0 n (%) and the “Neutropenia” value [4, 9] was 1 (6%) n (%). The “Thrombocytopenia and raised transaminases (grade 3 or 4 asymptomatic laboratory event)” value [4, 9] was 0 n (%), the “Total adverse events” value [4, 9] was 1 (6%) n (%) and the Reportable adverse events ([4]; 28 children weighing 25 kg or more on 50 mg film-coated tablets, follow-up 24 weeks) was “three”. The “Anaemia” value [4, 10] was 0 n (%), the “Cryptococcal meningitis” value [4, 10] was 0 n (%) and the “Grade 3 or 4 asymptomatic laboratory events” value [4, 10] was 0 n (%). For the same compound, the “Grade 3 or 4 clinical adverse events” value [4, 10] was 0 n (%), the “Neutropenia” value [4, 10] was 0 n (%) and the “Thrombocytopenia and raised transaminases (grade 3 or 4 asymptomatic laboratory event)” value [4, 10] was 0 n (%). For the same compound, the “Anaemia” value [4, 11] was 1 (9%) n (%), the “Grade 3 or 4 asymptomatic laboratory events” value [4, 11] was 1 (9%) n (%) and the “Grade 3 or 4 clinical adverse events” value [4, 11] was 1 (9%) n (%). The “Neutropenia” value [4, 11] was 0 n (%), the “Thrombocytopenia and raised transaminases (grade 3 or 4 asymptomatic laboratory event)” value [4, 11] was 0 n (%) and the “Total adverse events” value [4, 11] was 2 (18%) n (%). The “Cryptococcal meningitis” value ([4]; 30 to <40 kg, 11 patients (50 mg) FCT, serious adverse event) was 1 (9%) ^** n (%) and the “Adverse events considered related to dolutegravir” value ([4]; 47 children on 50 mg film-coated tablet or 30 mg dispersible tablets, reporting clinicians and endpoint review committee) was “none”.
